Results on 13 molecules are retold here after patent publication US20260103461A1, “ESTROGEN RECEPTOR MODULATORS AND USES THEREOF” (Olema Pharmaceuticals, Inc., priority 2022, published 2026).

In the assay the target is T1, estrogen receptor (Homo sapiens, UniProt P03372).
T1 construct: endogenous in cells; host or cells: ECC-1 cells
T1 sequence (P03372 1-595): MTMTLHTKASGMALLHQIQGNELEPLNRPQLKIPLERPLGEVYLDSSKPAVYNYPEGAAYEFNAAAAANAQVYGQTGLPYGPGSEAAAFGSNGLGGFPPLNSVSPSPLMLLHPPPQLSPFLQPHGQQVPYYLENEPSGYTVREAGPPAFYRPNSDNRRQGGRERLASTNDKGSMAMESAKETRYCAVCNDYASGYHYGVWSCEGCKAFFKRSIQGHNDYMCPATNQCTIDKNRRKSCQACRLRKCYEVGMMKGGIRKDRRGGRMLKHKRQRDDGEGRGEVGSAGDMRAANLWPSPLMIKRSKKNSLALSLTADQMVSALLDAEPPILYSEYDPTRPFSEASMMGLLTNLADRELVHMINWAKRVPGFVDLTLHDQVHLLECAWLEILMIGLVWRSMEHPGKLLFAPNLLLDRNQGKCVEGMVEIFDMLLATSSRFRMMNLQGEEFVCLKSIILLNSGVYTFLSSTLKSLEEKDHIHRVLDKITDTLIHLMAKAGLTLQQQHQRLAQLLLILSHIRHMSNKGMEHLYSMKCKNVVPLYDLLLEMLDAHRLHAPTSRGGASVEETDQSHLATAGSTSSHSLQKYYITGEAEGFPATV
As to the kind of experiment: AP (alkaline phosphatase) assay in ECC-1 cells, agonist mode and antagonist mode. The settings on record: 3 days, absence of E2 (agonist mode) or 500 pM E2 (antagonist mode), AP activity normalized to 500 pM E2 alone. The assay is classed as cell-based. Here is the method: ECC-1 cells were trypsinized and resuspended in hormone-depleted media and plated at a density of 15 k cells per well into a 96-well plate for at least 4 hours. Cells were treated with test compounds in the absence of E2 (for agonist mode) or in the presence of 500 pM E2 (for antagonist mode) for 3 days and plates were subsequently frozen at −80° C. Thawed plates were incubated with a chromogenic substrate of AP, p-nitrophenyl phosphate (Thermo Fisher Scientific), for 40 minutes at 42° C., and absorbances were read at 405 nm. AP activity was normalized to the activity of 500 pM E2 alone.
The compound numbers correspond to the compound numbers of Table 1 and 2. Compounds having an activity designated as “+” provided estrogen receptor agonism having (i) at least 80% increase in the E2-normalized signal in the AP assay (agonist mode) and (ii) no more than 80% reduction in the E2-normalized signal in the AP assay (antagonist mode). Compounds having an activity designated as “++” provided estrogen receptor antagonism having (i) between 10% and 80% increase in the E2-normalized signal in the AP assay (agonist mode) and (ii) between 10% and 80% reduction in the E2-normalized signal in the AP assay (antagonist mode).
Regarding `C[C@@H]1[C@H](Oc2ncc([C@@H]3c4[nH]c5ccccc5c4C[C@@H](C)N3CC(F)(F)CO)s2)CCN1CCCF` [Example I-35, 2,2-difluoro-3-[(1S,3R)-1-[2-[(2R,3R)-1-(3-fluoropropyl)-2-methyl-pyrrolidin-3-yl]oxythiazol-5-yl]-3-methyl-1,3,4,9-tetrahydropyrido[3,4-b]indol-2-yl]propan-1-ol], the “Activity (estrogen receptor modulation, agonism and antagonism)” value (“Activity” for short) is “+ (estrogen receptor agonism having (i) at least 80% increase in the E2-normalized signal in the AP assay (agonist mode) and (ii) no more than 80% reduction in the E2-normalized signal in the AP assay (antagonist mode))”.

For the molecule `C[C@@H]1Cc2c([nH]c3ccccc23)[C@@H](c2sc(O[C@@H]3CCN(CCCF)C3)cc2F)N1CC(F)(F)CO` [Example I-27, 2,2-difluoro-3-[(1S,3R)-1-[3-fluoro-5-[(3R)-1-(3-fluoropropyl)pyrrolidin-3-yl]oxy-2-thienyl]-3-methyl-1,3,4,9-tetrahydropyrido[3,4-b]indol-2-yl]propan-1-ol], the “Activity” value is “+++ (estrogen receptor antagonism (i) with pIC50 greater than 7.5 and at least a 10% reduction in the E2-normalized signal in the AP assay (antagonist mode); and no more than 10% increase in E2-normalized signal in the AP assay (agonist mode))”.

`C[C@@H]1Cc2c([nH]c3ccccc23)[C@@H](c2ccc(O[C@@H]3CCN(CCCF)C3)s2)N1CC(C)(C)F` [Example I-5, (3R)-3-({5-[(1S,3R)-2-(2-fluoro-2-methylpropyl)-3-methyl-1H,2H,3H,4H,9H-pyrido[3,4-b]indol-1-yl]thiophen-2-yl}oxy)-1-(3-fluoropropyl)pyrrolidine]: the “Activity” value was “+ (estrogen receptor agonism having (i) at least 80% increase in the E2-normalized signal in the AP assay (agonist mode) and (ii) no more than 80% reduction in the E2-normalized signal in the AP assay (antagonist mode))”. Take `C[C@@H]1Cc2c([nH]c3ccccc23)[C@@H](c2sc(OC3CN(CCCF)C3)cc2F)N1CC(F)(F)CO` [Example I-26, 2,2-difluoro-3-[(1S,3R)-1-[3-fluoro-5-[1-(3-fluoropropyl)azetidin-3-yl]oxy-2-thienyl]-3-methyl-1,3,4,9-tetrahydropyrido[3,4-b]indol-2-yl]propan-1-ol]: the “Activity” value was “+++ (estrogen receptor antagonism (i) with pIC50 greater than 7.5 and at least a 10% reduction in the E2-normalized signal in the AP assay (antagonist mode); and no more than 10% increase in E2-normalized signal in the AP assay (agonist mode))”. With `C[C@@H]1Cc2c([nH]c3ccccc23)[C@@H](c2ccc(O[C@@H]3CCN(CCCF)C3)s2)N1CC(F)(F)F` [Example I-20, (1S,3R)-1-[5-[(3R)-1-(3-fluoropropyl)pyrrolidin-3-yl]oxy-2-thienyl]-3-methyl-2-(2,2,2-trifluoroethyl)-1,3,4,9-tetrahydropyrido[3,4-b]indole], the “Activity” value was “++ (estrogen receptor antagonism having (i) between 10% and 80% increase in the E2-normalized signal in the AP assay (agonist mode) and (ii) between 10% and 80% reduction in the E2-normalized signal in the AP assay (antagonist mode))”. With `C[C@@H]1Cc2c([nH]c3ccccc23)[C@@H](c2cnc(O[C@@H]3CCCN(CCCF)C3)s2)N1CC(F)(F)CO` [Example I-37, 2,2-difluoro-3-[(1S,3R)-1-[2-[[(3R)-1-(3-fluoropropyl)-3-piperidyl]oxy]thiazol-5-yl]-3-methyl-1,3,4,9-tetrahydropyrido[3,4-b]indol-2-yl]propan-1-ol] the entry was “+++ (estrogen receptor antagonism (i) with pIC50 greater than 7.5 and at least a 10% reduction in the E2-normalized signal in the AP assay (antagonist mode); and no more than 10% increase in E2-normalized signal in the AP assay (agonist mode))”; with `CCN1CC[C@@H](Oc2ccc([C@@H]3c4[nH]c5ccccc5c4C[C@@H](C)N3CC(C)(C)F)s2)C1` [Example I-14, (1S,3R)-1-[5-[(3R)-1-ethylpyrrolidin-3-yl]oxy-2-thienyl]-2-(2-fluoro-2-methyl-propyl)-3-methyl-1,3,4,9-tetrahydropyrido[3,4-b]indole], “+ (estrogen receptor agonism having (i) at least 80% increase in the E2-normalized signal in the AP assay (agonist mode) and (ii) no more than 80% reduction in the E2-normalized signal in the AP assay (antagonist mode))”. With `C[C@@H]1Cc2c([nH]c3ccccc23)[C@@H](c2ncc(O[C@H]3CCN(CCCF)C3)s2)N1CC(C)(C)F` [Example I-6, 2-[(1S,3R)-2-(2-fluoro-2-methylpropyl)-3-methyl-1H,2H,3H,4H,9H-pyrido[3,4-b]indol-1-yl]-5-{[(3S)-1-(3-fluoropropyl)pyrrolidin-3-yl]oxy}-1,3-thiazole] the entry was “++ (estrogen receptor antagonism having (i) between 10% and 80% increase in the E2-normalized signal in the AP assay (agonist mode) and (ii) between 10% and 80% reduction in the E2-normalized signal in the AP assay (antagonist mode))”; with `C[C@@H]1Cc2c([nH]c3ccccc23)[C@@H](c2ncc(O[C@@H]3CCN(CCCF)C3)s2)N1CC(F)(F)CO` [Example I-24, 2,2-difluoro-3-[(1S,3R)-1-[5-[(3R)-1-(3-fluoropropyl)pyrrolidin-3-yl]oxythiazol-2-yl]-3-methyl-1,3,4,9-tetrahydropyrido[3,4-b]indol-2-yl]propan-1-ol], “++ (estrogen receptor antagonism having (i) between 10% and 80% increase in the E2-normalized signal in the AP assay (agonist mode) and (ii) between 10% and 80% reduction in the E2-normalized signal in the AP assay (antagonist mode))”; with `C[C@@H]1Cc2c([nH]c3ccccc23)[C@@H](c2ccc(OC3CN(CCCF)C3)s2)N1CC(F)(F)F` [Example I-21, (1S,3R)-1-[5-[1-(3-fluoropropyl)azetidin-3-yl]oxy-2-thienyl]-3-methyl-2-(2,2,2-trifluoroethyl)-1,3,4,9-tetrahydropyrido[3,4-b]indole], “++ (estrogen receptor antagonism having (i) between 10% and 80% increase in the E2-normalized signal in the AP assay (agonist mode) and (ii) between 10% and 80% reduction in the E2-normalized signal in the AP assay (antagonist mode))”. Consider `C[C@@H]1Cc2c([nH]c3ccccc23)[C@@H](c2ccc(O[C@@H]3CCN(CCCF)C3)s2)N1CC(F)(F)CO` [Example I-13, 2,2-difluoro-3-[(1S,3R)-1-[5-[(3R)-1-(3-fluoropropyl)pyrrolidin-3-yl]oxy-2-thienyl]-3-methyl-1,3,4,9-tetrahydropyrido[3,4-b]indol-2-yl]propan-1-ol], for which the “Activity” value was “+++ (estrogen receptor antagonism (i) with pIC50 greater than 7.5 and at least a 10% reduction in the E2-normalized signal in the AP assay (antagonist mode); and no more than 10% increase in E2-normalized signal in the AP assay (agonist mode))”. To `C[C@@H]1Cc2c([nH]c3ccccc23)[C@@H](c2ccc(OC3CN(CCCF)C3)s2)N1CC(C)(C)F` [Example I-2, 3-({5-[(1S,3R)-2-(2-fluoro-2-methylpropyl)-3-methyl-1H,2H,3H,4H,9H-pyrido[3,4-b]indol-1-yl]thiophen-2-yl}oxy)-1-(3-fluoropropyl)azetidine] belongs “++ (estrogen receptor antagonism having (i) between 10% and 80% increase in the E2-normalized signal in the AP assay (agonist mode) and (ii) between 10% and 80% reduction in the E2-normalized signal in the AP assay (antagonist mode))”; to `C[C@@H]1Cc2c([nH]c3ccccc23)[C@@H](c2cnc(O[C@H]3CN(CCCF)C[C@H]3F)s2)N1CC(F)(F)CO` [Example I-33, 2,2-difluoro-3-[(1S,3R)-1-[2-[(3S,4R)-4-fluoro-1-(3-fluoropropyl)pyrrolidin-3-yl]oxythiazol-5-yl]-3-methyl-1,3,4,9-tetrahydropyrido[3,4-b]indol-2-yl]propan-1-ol], “+++ (estrogen receptor antagonism (i) with pIC50 greater than 7.5 and at least a 10% reduction in the E2-normalized signal in the AP assay (antagonist mode); and no more than 10% increase in E2-normalized signal in the AP assay (agonist mode))”.
